Source: ChEMBL document CHEMBL1146245, “Antitumor agents. 258. Syntheses and evaluation of dietary antioxidant--taxoid conjugates as novel cytotoxic agents” (2007)
Converted amounts (≈) assume the structure as drawn. The source made the active and inactive calls. The calls are words filed in the database; no cut-off is given here.

Key:
Assay type in all cases: functional
KB = assay: Cytotoxicity against human KB cells by sulforhodamine B assay; conditions: for EC50: read-out: ED50 (the source's name)
1A9 = assay: Cytotoxicity against human 1A9 cells by sulforhodamine B assay; conditions: for EC50: read-out: ED50 (the source's name)
[1] = Cytotoxicity against MDR human KB-VIN cells expressing P-glycoprotein
A-431 = assay: Cytotoxicity against human A431 cells; conditions: for EC50: read-out: ED50 (the source's name)
HCT-8 = assay: Cytotoxicity against human HCT8 cells
A549 = assay: Cytotoxicity against human A549 cells

Molecule	EC50 (KB) [µg/mL]	EC50 (1A9) [µg/mL]	Activity (HCT-8)	Activity (KB)	Activity [1]	Activity (1A9)	Activity (A549)	other results
CC(=O)O[C@H]1C(=O)[C@@]2(C)[C@H]([C@H](OCc3ccccc3)[C@]3(O)C[C@H](OC(=O)[C@H](OC(=O)CCC(=O)Oc4c(C)c(C)c5c(c4C)OC(C)(C)CC5)[C@@H](NCc4ccccc4)c4ccccc4)C(C)=C1C3(C)C)[C@]1(OC(C)=O)CO[C@@H]1C[C@@H]2O	0.94 (≈ 0.833 µM)	0.2 (≈ 0.177 µM)						
COc1cc(/C=C/C(=O)CC(=O)/C=C/c2ccc(OC(=O)CCC(=O)O[C@@H](C(=O)O[C@H]3C[C@@]4(O)[C@@H](OCc5ccccc5)[C@@H]5[C@]6(OC(C)=O)CO[C@@H]6C[C@H](O)[C@@]5(C)C(=O)[C@H](OC(C)=O)C(=C3C)C4(C)C)[C@@H](NCc3ccccc3)c3ccccc3)c(OC)c2)ccc1O	0.01 (≈ 0.00783 µM)	0.03 (≈ 0.0235 µM)	inactive					EC50 ([1]; KBVIN, read-out: ED50 (the source's name)): 0.2 µg/mL (≈ 0.157 µM); EC50 (A-431): 0.03 µg/mL (≈ 0.0235 µM); EC50 (A549; read-out: ED50 (the source's name)): 0.03 µg/mL (≈ 0.0235 µM)
CC(=O)O[C@H]1C(=O)[C@]2(C)[C@@H](OC(=O)CN(C)C)C[C@H]3OC[C@@]3(OC(C)=O)[C@H]2[C@H](OCc2ccccc2)[C@]2(O)C[C@H](OC(=O)[C@H](OC(=O)CCC(=O)Oc3c(C)c(C)c4c(c3C)OC(C)(CCC[C@@H](C)CCC[C@@H](C)CCCC(C)C)CC4)[C@@H](NCc3ccccc3)c3ccccc3)C(C)=C1C2(C)C.CS(=O)(=O)O (stereo partly drawn)								EC50 (A-431): 0.1 µg/mL
CC(=O)O[C@H]1C(=O)[C@]2(C)[C@@H](OC(=O)CCC(=O)O)C[C@H]3OC[C@@]3(OC(C)=O)[C@H]2[C@H](OCc2ccccc2)[C@]2(O)C[C@H](OC(=O)[C@H](OC(=O)CCC(=O)Oc3c(C)c(C)c4c(c3C)OC(C)(CCC[C@@H](C)CCC[C@@H](C)CCCC(C)C)CC4)[C@@H](NCc3ccccc3)c3ccccc3)C(C)=C1C2(C)C (stereo partly drawn) [listing 1 of 2 here]			inactive	inactive	inactive	inactive	inactive	
COc1cc(/C=C/C(C)=O)ccc1OC(=O)CCC(=O)O[C@@H](C(=O)O[C@H]1C[C@@]2(O)[C@@H](OCc3ccccc3)[C@@H]3[C@]4(OC(C)=O)CO[C@@H]4C[C@H](OC(=O)CN(C)C)[C@@]3(C)C(=O)[C@H](OC(C)=O)C(=C1C)C2(C)C)[C@@H](NCc1ccccc1)c1ccccc1	0.7 (≈ 0.591 µM)	0.63 (≈ 0.531 µM)						
CC(=O)O[C@H]1C(=O)[C@]2(C)[C@@H](OC(=O)CN(C)C)C[C@H]3OC[C@@]3(OC(C)=O)[C@H]2[C@H](OCc2ccccc2)[C@]2(O)C[C@H](OC(=O)[C@H](OC(=O)CCC(=O)Oc3ccc4c(=O)c(O)c(-c5ccccc5)oc4c3)[C@@H](NCc3ccccc3)c3ccccc3)C(C)=C1C2(C)C	0.09 (≈ 0.0722 µM)	0.11 (≈ 0.0882 µM)						
CC(=O)O[C@H]1C(=O)[C@]2(C)[C@@H](OC(=O)CCN3CCCCC3)C[C@H]3OC[C@@]3(OC(C)=O)[C@H]2[C@H](OCc2ccccc2)[C@]2(O)C[C@H](OC(=O)[C@H](OC(=O)CCC(=O)Oc3c(C)c(C)c4c(c3C)OC(C)(CCC[C@@H](C)CCC[C@@H](C)CCCC(C)C)CC4)[C@@H](NCc3ccccc3)c3ccccc3)C(C)=C1C2(C)C (stereo partly drawn)			inactive	inactive	inactive	inactive	inactive	Activity (A-431): inactive
CC(=O)O[C@H]1C(=O)[C@]2(C)[C@@H](OC(=O)CN(C)C)C[C@H]3OC[C@@]3(OC(C)=O)[C@H]2[C@H](OCc2ccccc2)[C@]2(O)C[C@H](OC(=O)[C@H](OC(=O)/C=C(C)/C=C/C=C(C)/C=C/C3=C(C)CCCC3(C)C)[C@@H](NCc3ccccc3)c3ccccc3)C(C)=C1C2(C)C	7.65 (≈ 6.41 µM)	4.47 (≈ 3.75 µM)						
CC(=O)O[C@H]1C(=O)[C@]2(C)[C@@H](OC(=O)CCC(=O)O)C[C@H]3OC[C@@]3(OC(C)=O)[C@H]2[C@H](OCc2ccccc2)[C@]2(O)C[C@H](OC(=O)[C@H](OC(=O)CCC(=O)Oc3c(C)c(C)c4c(c3C)OC(C)(CCC[C@@H](C)CCC[C@@H](C)CCCC(C)C)CC4)[C@@H](NCc3ccccc3)c3ccccc3)C(C)=C1C2(C)C.CCN(CC)CC (stereo partly drawn)								EC50 (A-431): 0.2 µg/mL
CC(=O)O[C@H]1C(=O)[C@@]2(C)[C@H]([C@H](OCc3ccccc3)[C@]3(O)C[C@H](OC(=O)[C@H](OC(=O)/C=C(C)/C=C/C=C(C)/C=C/C4=C(C)CCCC4(C)C)[C@@H](NCc4ccccc4)c4ccccc4)C(C)=C1C3(C)C)[C@]1(OC(C)=O)CO[C@@H]1C[C@@H]2O	0.2 (≈ 0.18 µM)	0.49 (≈ 0.442 µM)						
CC(=O)O[C@H]1C(=O)[C@]2(C)[C@@H](OC(=O)CN(C)C)C[C@H]3OC[C@@]3(OC(C)=O)[C@H]2[C@H](OCc2ccccc2)[C@]2(O)C[C@H](OC(=O)[C@H](OC(=O)CCC(=O)Oc3c(C)c(C)c4c(c3C)OC(C)(CCC[C@@H](C)CCC[C@@H](C)CCCC(C)C)CC4)[C@@H](NCc3ccccc3)c3ccccc3)C(C)=C1C2(C)C (stereo partly drawn) [listing 1 of 2 here]			inactive	inactive	inactive	inactive	inactive	
CC(=O)O[C@H]1C(=O)[C@@]2(C)[C@H]([C@H](OCc3ccccc3)[C@]3(O)C[C@H](OC(=O)[C@H](OC(=O)CCC(=O)Oc4c(C)c(C)c5c(c4C)OC(C)(CCC[C@@H](C)CCC[C@@H](C)CCCC(C)C)CC5)[C@@H](NCc4ccccc4)c4ccccc4)C(C)=C1C3(C)C)[C@]1(OC(C)=O)CO[C@@H]1C[C@@H]2O (stereo partly drawn)			inactive	inactive	inactive	inactive	inactive	EC50 (A-431): 0.1 µg/mL (≈ 0.0747 µM)
CC(=O)O[C@H]1C(=O)[C@]2(C)[C@@H](OC(=O)CN(C)C)C[C@H]3OC[C@@]3(OC(C)=O)[C@H]2[C@H](OCc2ccccc2)[C@]2(O)C[C@H](OC(=O)[C@H](OC(=O)CCC(=O)Oc3c(C)c(C)c4c(c3C)OC(C)(C)CC4)[C@@H](NCc3ccccc3)c3ccccc3)C(C)=C1C2(C)C	9.79 (≈ 8.07 µM)	1.01 (≈ 0.832 µM)						
CC(=O)O[C@H]1C(=O)[C@@]2(C)[C@H]([C@H](OCc3ccccc3)[C@]3(O)C[C@H](OC(=O)[C@H](OC(=O)CCC(=O)Oc4cc(O)c5c(=O)cc(-c6ccccc6)oc5c4)[C@@H](NCc4ccccc4)c4ccccc4)C(C)=C1C3(C)C)[C@]1(OC(C)=O)CO[C@@H]1C[C@@H]2O	0.47 (≈ 0.404 µM)	0.2 (≈ 0.172 µM)						
CC(=O)O[C@H]1C(=O)[C@]2(C)[C@@H](OC(=O)CN(C)C)C[C@H]3OC[C@@]3(OC(C)=O)[C@H]2[C@H](OCc2ccccc2)[C@]2(O)C[C@H](OC(=O)[C@H](OC(=O)CCC(=O)Oc3c(C)c(C)c4c(c3C)OC(C)(CCC[C@@H](C)CCC[C@@H](C)CCCC(C)C)CC4)[C@@H](NCc3ccccc3)c3ccccc3)C(C)=C1C2(C)C (stereo partly drawn) [listing 2 of 2 here]								EC50 (A-431): 0.2 µg/mL (≈ 0.14 µM)
CCN(CC)CCC(=O)O[C@H]1C[C@H]2OC[C@@]2(OC(C)=O)[C@H]2[C@H](OCc3ccccc3)[C@]3(O)C[C@H](OC(=O)[C@H](OC(=O)CCC(=O)Oc4c(C)c(C)c5c(c4C)OC(C)(CCC[C@@H](C)CCC[C@@H](C)CCCC(C)C)CC5)[C@@H](NCc4ccccc4)c4ccccc4)C(C)=C([C@@H](OC(C)=O)C(=O)[C@]12C)C3(C)C (stereo in doubt; 27)			inactive	inactive	inactive	inactive	inactive	Activity (A-431): inactive
COc1cc(/C=C/C(=O)CC(=O)/C=C/c2ccc(O)c(OC)c2)ccc1O [CURCUMIN]			inactive	inactive	inactive	inactive	inactive	EC50 (A-431): 0.75 µg/mL (≈ 2.04 µM)
CCN(CC)CCC(=O)O[C@H]1C[C@H]2OC[C@@]2(OC(C)=O)[C@H]2[C@H](OCc3ccccc3)[C@]3(O)C[C@H](OC(=O)[C@H](OC(=O)CCC(=O)Oc4c(C)c(C)c5c(c4C)OC(C)(CCC[C@@H](C)CCC[C@@H](C)CCCC(C)C)CC5)[C@@H](NCc4ccccc4)c4ccccc4)C(C)=C([C@@H](OC(C)=O)C(=O)[C@]12C)C3(C)C (stereo in doubt; 27a)			inactive	inactive	inactive	inactive	inactive	Activity (A-431): inactive
COc1cc(/C=C/C(C)=O)ccc1OC(=O)CCC(=O)O[C@@H](C(=O)O[C@H]1C[C@@]2(O)[C@@H](OCc3ccccc3)[C@@H]3[C@]4(OC(C)=O)CO[C@@H]4C[C@H](O)[C@@]3(C)C(=O)[C@H](OC(C)=O)C(=C1C)C2(C)C)[C@@H](NCc1ccccc1)c1ccccc1	0.005 (≈ 0.00454 µM)	0.005 (≈ 0.00454 µM)						
CC(=O)O[C@H]1C(=O)[C@]2(C)[C@@H](OC(=O)CCC(=O)O)C[C@H]3OC[C@@]3(OC(C)=O)[C@H]2[C@H](OCc2ccccc2)[C@]2(O)C[C@H](OC(=O)[C@H](OC(=O)CCC(=O)Oc3c(C)c(C)c4c(c3C)OC(C)(CCC[C@@H](C)CCC[C@@H](C)CCCC(C)C)CC4)[C@@H](NCc3ccccc3)c3ccccc3)C(C)=C1C2(C)C (stereo partly drawn) [listing 2 of 2 here]								EC50 (A-431): 0.1 µg/mL (≈ 0.0695 µM)
VITAMIN E			inactive	inactive	inactive	inactive	inactive	ED50 (A-431): 0.75 µg/mL
CC(=O)O[C@H]1C(=O)[C@@]2(C)[C@H]([C@H](OCc3ccccc3)[C@]3(O)C[C@H](OC(=O)[C@H](OC(=O)CCC(=O)Oc4ccc5c(C)cc(=O)oc5c4)[C@@H](NCc4ccccc4)c4ccccc4)C(C)=C1C3(C)C)[C@]1(OC(C)=O)CO[C@@H]1C[C@@H]2O	0.14 (≈ 0.129 µM)	0.005 (≈ 0.00461 µM)						
CC(=O)O[C@H]1C(=O)[C@@]2(C)[C@H]([C@H](OCc3ccccc3)[C@]3(O)C[C@H](OC(=O)[C@H](OC(=O)CCC(=O)Oc4ccc5c(=O)c(O)c(-c6ccccc6)oc5c4)[C@@H](NCc4ccccc4)c4ccccc4)C(C)=C1C3(C)C)[C@]1(OC(C)=O)CO[C@@H]1C[C@@H]2O	0.26 (≈ 0.224 µM)	0.13 (≈ 0.112 µM)						
COc1cccc(/C=C\C(C)=O)c1OC(=O)CCC(=O)O[C@@H](C(=O)O[C@H]1C[C@@]2(O)[C@@H](OCc3ccccc3)[C@@H]3[C@]4(OC(C)=O)CO[C@@H]4C[C@H](OC(=O)CN(C)C)[C@@]3(C)C(=O)[C@H](OC(C)=O)C(=C1C)C2(C)C)[C@@H](NCc1ccccc1)c1ccccc1	0.34 (≈ 0.287 µM)	0.19 (≈ 0.16 µM)						
